Data: patent publication US7745439B2, “Indene derivatives and process for the preparation thereof” (Korea Research Institute of Chemical Technology, priority 2004, dated 2010)
Read-outs that look alike come from different tables or passages of the source. One block for each compound: values may come before it.

Legend:
human PPARγ = biological target: T1, human PPARγ (Homo sapiens, UniProt P37231); experiment: PPARγ activation test (GAL-4/luciferase reporter in NIH/3T3 cell); assay type: cell-based; details: luciferase activity, 24 hrs incubation
T1 construct: expressed in transfected cells; host or cells: NIH/3T3
T1 sequence (P37231 238-503 limits assumed): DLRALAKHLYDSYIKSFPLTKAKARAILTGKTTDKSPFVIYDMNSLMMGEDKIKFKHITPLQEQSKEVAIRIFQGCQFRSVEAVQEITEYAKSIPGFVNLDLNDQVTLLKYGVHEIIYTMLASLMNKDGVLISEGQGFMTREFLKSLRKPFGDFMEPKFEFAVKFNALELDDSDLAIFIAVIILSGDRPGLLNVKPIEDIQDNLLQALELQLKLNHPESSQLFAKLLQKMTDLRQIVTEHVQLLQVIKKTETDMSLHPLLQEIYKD
Description: The activity for PPARγ activation was examined as follows.
The vector fused with ligand binding domain of a human PPARγ gene and DNA binding site of a yeast GAL-4 gene, and luciferase reporter vector were simultaneously transfected in NIH/3T3 cell. The cells were cultured for 24 hrs. The solution containing the cells at a concentration of 2×10^4 cells/well was placed on a 96-well plate. Then, each of the test compounds of the present invention and the control group without test compounds was added thereto. After incubating for 24 hrs, the cells were subjected to lysis.

C57/BL6J mice [1] = experiment: Adverse side effects check (weight, heart weight, liver weight, GPT/GOT) in high fat diet C57/BL6J mice; details: for GOT / GPT / Heart Weight / Liver Weight / Weight: high fat diet C57/BL6J mice
Description: (§2) To check possible adverse side effects caused by the administration of the compound, the weight, heart weight and liver weight of each mouse were measured. GPT and GOT values were also calculated by employing a kit available in the market.

ob/ob mice [2] = details: relative to control
Description: The effectiveness in lowering blood glucose level of the inventive compound was examined using ob/ob mice (male, 8-9 week old), a type 2 diabetes model animals which expresses signs of hyperglycemia and hyperinsulinemia, bred in house facilities of Korea Research Institute of Chemical Technology.
(§1) The resulting solution was intraperitoneally administered to the mice at a dose of 50 mg/kg, once a day for 5 days, or orally administered to the mice, at a dose of 100 mg/kg, twice a day for 14 days. Days 1, 3 and 5 were selected for intraperitoneal administration, and days 5, 10 and 14, for oral administration, to collect blood samples for measuring the blood glucose levels. […] Upon the completion of the oral administration for 14 days, the mice were fasted for 16 hrs to perform OGTT (Oral Glucose Tolerance Test) to determine the changes in insulin sensitivity induced by the oral administration. After administrating glucose to the mice at a dose of 2 g/kg orally, blood samples were collected at 0, 15, 30 60 and 120 minutes to measure blood glucose levels.

C57/BL6J mice [3] = details: high fat diet C57/BL6J mice, after oral administration for 14 days once a day
Description: as §1

ob/ob mice [4] = details: total amount of blood glucose over 120 minutes after glucose 2 g/kg orally, after 14 days oral administration
Description: as §1

C57/BL6J mice [5] = tested on: C57/BL6J mice
Description: as §2

[6] = high fat diet C57/BL6J mice, oral administration for 14 days once a day

Compound: CCOC(=O)C1=C(c2ccccc2)c2ccc(OC)cc2C1(O)C(C)C (centres unmarked) [Compound 3, 1-hydroxy-1-isopropyl-6-methoxy-3-phenyl-1H-indene-2-carboxylic acid ethyl ester]
EC50 (human PPARγ): 250 nM

Compound: CCOC(=O)C1=C(c2ccccc2)c2ccc(OC)cc2C1(C)O (centres unmarked) [Compound 4, 1-hydroxy-6-methoxy-1-methyl-3-phenyl-1H-indene-2-carboxylic acid ethyl ester]
EC50 (human PPARγ): 230 nM

Compound: CCOC(=O)C1=C(c2ccccc2)c2ccc(OC)cc2C1(O)Cc1ccccc1 (centres unmarked) [Compound 5, 1-benzyl-1-hydroxy-6-methoxy-3-phenyl-1H-indene-2-carboxylic acid ethyl ester]
EC50 (human PPARγ): 95 nM

Compound: CCOC(=O)C1=C(c2ccccc2)c2ccc(OCCN3CCOCC3)cc2C1(O)c1ccccc1 (centres unmarked) [Compound 8, 1-hydroxy-6-(2-morpholine-4-yl-ethoxy)-1,3-diphenyl-1H-indene-2-carboxylic acid ethyl ester]
EC50 (human PPARγ): 75 nM
melting point: 121 to 123 °C

Compound: CCOC(=O)C1=C(c2ccccc2)c2ccc(OCCc3ccccn3)cc2C1(O)c1ccccc1 (centres unmarked) [Compound 10, 1-hydroxy-1,3-diphenyl-6-(2-pyridine-2-yl-ethoxy)-1H-indene-2-carboxylic acid ethyl ester]
EC50 (human PPARγ): 150 nM

Compound: N#CC1=C(c2ccccc2)c2ccc(OCCCc3ccccc3)cc2C1(O)c1ccccc1 (centres unmarked) [Compound 11, 1-hydroxy-1,3-diphenyl-6-(3-phenyl-propoxy)-1H-indene-2-carbonitrile]
EC50 (human PPARγ): 100 nM

Compound: COc1ccc2c(c1)C(O)(Cc1ccccc1)C(C(=O)O)=C2c1ccccc1 (centres unmarked) [Compound 15, 1-benzyl-1-hydroxy-6-methoxy-3-phenyl-1H-indene-2-carboxylic acid]
EC50 (human PPARγ): 230 nM

Compound: CCOC(=O)C1=C(c2ccccc2)c2ccc(OC)cc2C1NC(C)=O (centres unmarked) [Compound 24, 1-acetylamino-6-methoxy-3-phenyl-1H-indene-2-carboxylic acid ethyl ester]
EC50 (human PPARγ): 50 nM

Compound: CCOC(=O)C1=C(c2ccccc2)c2ccc(OC)cc2C1NC1CCCCC1 (centres unmarked) [Compound 32, 1-cyclohexyl amino-6-methoxy-3-phenyl-1H-indene-2-carboxylic acid ethyl ester]
EC50 (human PPARγ): 250 nM

Compound: CN(CCOc1ccc(CC2SC(=O)NC2=O)cc1)c1ccccn1 (centres unmarked) [Rosiglitazone, reference compound]
GOT (C57/BL6J mice [1]): 40 ± 7.1 karmen
GPT (C57/BL6J mice [1]): 79 ± 8.3/ karmen
Heart Weight (C57/BL6J mice [1]): 0.133 ± 0.004 g
Liver Weight (C57/BL6J mice [1]): 1.35 ± 0.14 g
Weight (C57/BL6J mice [1]): 40 ± 1.6 g

Compound: CCOC(=O)C1=C(c2ccccc2)c2ccc(OCCN3CCOCC3)cc2C1(O)c1ccccc1 (centres unmarked) [The Inventive Compound, 1-hydroxy-6-(2-morpholine-4-yl-ethoxy)-1,3-diphenyl-1H-indene-2-carbo-xylic acid ethyl ester]
Extent of Inhibition (%) of blood glucose level (ob/ob mice [2]; Intraperitoneal Administration (50 mg/kg/day), once a day for 5 days): 32.0%
Extent of Inhibition (%) of blood glucose level (ob/ob mice [2]; Oral Administration (100 mg/kg/day), 14 days): 23.7%
Inhibition Ratio (%), Oral Glucose Tolerance Test (Glucose) (C57/BL6J mice [3]): 23.8%
Inhibition Ratio (%), Oral Glucose Tolerance Test (Insulin) (C57/BL6J mice [3]): 56.2%
Extent of Inhibition (%), Oral Glucose Tolerance Test (Blood Glucose) (ob/ob mice [4]): 10.2%
Effect in lowering blood glucose and insulin levels (summary in words) (C57/BL6J mice [5]; administered orally or intraperitoneally, Tables 6, 7 and 8): excellent effect in lowering both blood glucose and insulin levels
Inhibition Ratio (%), Blood Insulin level (C57/BL6J mice [5]; [6]): 44.6%
Inhibition Ratio (%), Blood glucose level (C57/BL6J mice [5]; [6]): 30.0%
Side effects (summary in words) (C57/BL6J mice [1]; administered orally or intraperitoneally): no side effects such as weight gain, hepatotoxicity or cardiotoxicity
GOT (C57/BL6J mice [1]): 35 ± 6.2 karmen
GPT (C57/BL6J mice [1]): 47 ± 6.5/ karmen
Heart Weight (C57/BL6J mice [1]): 0.117 ± 0.012 g
Liver Weight (C57/BL6J mice [1]): 1.22 ± 0.10 g
Weight (C57/BL6J mice [1]): 37 ± 2.0 g

Next, values leading:

EC50 (human PPARγ): 50 nM
Compound: CCOC(=O)C1=C(c2ccccc2)c2ccc(OC)cc2C1(O)C1CCCCC1 (centres unmarked) [Compound 6, 1-cyclohexyl-1-hydroxy-6-methoxy-3-phenyl-1H-indene-2-carboxylic acid ethyl ester]

EC50 (human PPARγ): 25 nM
Compound: CCOC(=O)C1=C(c2ccccc2)c2ccc(OCCCc3ccccc3)cc2C1(O)c1ccccc1 (centres unmarked) [Compound 7, 1-hydroxy-1,3-diphenyl-6-(3-phenyl-propoxy)-1H-indene-2-carboxylic acid ethyl ester]

EC50 (human PPARγ): 45 nM
Compound: CCOC(=O)C1=C(c2ccccc2)c2ccc(OC)cc2C1OC (centres unmarked) [Compound 18, 1,6-dimethoxy-3-phenyl-1H-indene-2-carboxylic acid ethyl ester]

EC50 (human PPARγ): 20 nM
Compound: CCOC(=O)C1=C(c2ccccc2)c2ccc(OC)cc2C1OCC (centres unmarked) [Compound 19, 1-ethoxy-6-methoxy-3-phenyl-1H-indene-2-carboxylic acid ethyl ester]

EC50 (human PPARγ): 12 nM
Compound: CCOC(=O)C1=C(c2ccccc2)c2ccc(OC)cc2C1NC(=O)CC (centres unmarked) [Compound 25, 6-methoxy-3-phenyl-1-propionylamino-1H-indene-2-carboxylic acid ethyl ester]

EC50 (human PPARγ): 40 nM
Compound: CCOC(=O)C1=C(c2ccccc2)c2ccc(OCCCc3ccccc3)cc2C1NC(C)=O (centres unmarked) [Compound 26, 1-acetylamino-3-phenyl-6-(3-phenyl-propoxy)-1H-indene-2-carboxylic acid ethyl ester]
